Reference: patent US20250230193A1, “CYCLIC COMPOUND HAVING SELECTIVE KRAS INHIBITORY EFFECT ON HRAS AND NRAS” (CHUGAI SEIYAKU KABUSHIKI KAISHA, priority 2022, published 2025)
Where a SMILES comes first, the peptide text is derived from it. Bridges are numbered along the chain shown (N, C = ends). [ ]: non-standard residue; d: D form. The star is where a group is joined. ξ: configuration not given here. hPhe(3,5-F2-4-CF3) = N[C@@H](CCc1cc(F)c(C(F)(F)F)c(F)c1)C(=O)O; hPhe(3-Cl-4-CF3) = N[C@@H](CCc1ccc(C(F)(F)F)c(Cl)c1)C(=O)O; NPrPhe(4-CF3) = CCCN[C@@H](Cc1ccc(C(F)(F)F)cc1)C(=O)O; NMeGly(cPent) = CN[C@H](C(=O)O)C1CCCC1; αMeF = C[C@](N)(Cc1ccccc1)C(=O)O; NMeD = CN[C@@H](CC(=O)O)C(=O)O; NMeL = CN[C@@H](CC(C)C)C(=O)O; ξNMeD = CNC(CC(=O)O)C(=O)O; Morpholide = C1CN(*)CCO1; Ac5c = NC1(C(=O)O)CCCC1; ξP = O=C(O)C1CCCN1; Sar = CNCC(=O)O

How the values were obtained:
[1] = target: GDP-bound NRAS wild-type protein (Homo sapiens, UniProt P01111); experiment: Binding to NRAS by surface plasmon resonance (SPR), Single Cycle Kinetics; conditions: SPR
Chain of GDP-bound NRAS wild-type protein (P01111 whole entry): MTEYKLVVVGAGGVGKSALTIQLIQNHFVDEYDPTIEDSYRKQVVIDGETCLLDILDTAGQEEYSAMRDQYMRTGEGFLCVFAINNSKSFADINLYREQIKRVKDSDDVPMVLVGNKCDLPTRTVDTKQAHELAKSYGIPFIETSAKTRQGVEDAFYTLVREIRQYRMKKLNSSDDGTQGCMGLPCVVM

[2] = target: GDP-bound HRAS wild-type protein (Homo sapiens, UniProt P01112); experiment: Binding to HRAS by surface plasmon resonance (SPR), Single Cycle Kinetics; conditions: SPR
Chain of GDP-bound HRAS wild-type protein (P01112 whole entry): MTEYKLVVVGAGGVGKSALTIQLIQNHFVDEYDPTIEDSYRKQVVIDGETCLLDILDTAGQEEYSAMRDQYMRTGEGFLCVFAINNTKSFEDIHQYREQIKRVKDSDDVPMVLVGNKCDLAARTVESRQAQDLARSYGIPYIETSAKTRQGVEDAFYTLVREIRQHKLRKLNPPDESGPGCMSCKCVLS

[3] = GDP-bound NRAS wild-type vs GDP-bound KRAS wild-type
[4] = GDP-bound HRAS wild-type vs GDP-bound KRAS wild-type
[5] = KD ratio, GDP-bound NRAS wild-type vs GDP-bound KRAS wild-type
[6] = KD ratio, GDP-bound HRAS wild-type vs GDP-bound KRAS wild-type

CCCN1C(=O)CN(C)C(=O)CN(C)C(=O)[C@H]([C@@H](C)CC)NC(=O)[C@H](CC(C)C)N(C)C(=O)CC(C(=O)N2CCOCC2)N(C)C(=O)[C@H](C2CCCC2)N(C)C(=O)C2(CCCC2)NC(=O)[C@@H]2CCCN2C(=O)[C@H](CCc2ccc(C(F)(F)F)c(Cl)c2)NC(=O)C2CCCN2C(=O)[C@@H]1Cc1ccc(C(F)(F)F)cc1 (stereo partly shown) [PP0149] ([NMeL]I[Sar][Sar][NPrPhe(4-CF3)][ξP][hPhe(3-Cl-4-CF3)]P[Ac5c][NMeGly(cPent)][ξNMeD]-Morpholide; lactam N-11)
NRAS/KRAS (ratio of KD for GDP-bound NRAS wild-type to KD for KRAS) ([1]; KD ratio NRAS/KRAS): C (A compound having a KD ratio of 0.1 or more and less than 3 is denoted as C)
HRAS/KRAS (ratio of KD for GDP-bound HRAS wild-type to KD for KRAS) ([2]; KD ratio HRAS/KRAS): B (a compound having 3 or more and less than 10 is denoted as B)

CCCN(C)C(=O)[C@@H]1CC(=O)N(C)[C@@H](C2CCC2)C(=O)N[C@@H]([C@@H](C)CC)C(=O)N(C)CC(=O)N(C)[C@H]2C/C=C\CCN(C2=O)[C@@H](Cc2ccc(C(F)(F)F)cc2)C(=O)N(C)CC(=O)N[C@@H](CCc2cc(F)c(C(F)(F)F)c(F)c2)C(=O)N2C[C@@H](C)C[C@H]2C(=O)NC2(CCC2)C(=O)N(C)[C@@H](C2CCCC2)C(=O)N1C [PP2083]
NRAS/KRAS (ratio of KD value with respect to NRAS to KD value with respect to KRAS) [1, 3]: A (a compound having 10 or more and less than 20 is denoted as A)
HRAS/KRAS (ratio of KD value with respect to HRAS to KD value with respect to KRAS) [2, 4]: B (a compound having 3 or more and less than 10 is denoted as B)

CC[C@H](C)[C@@H]1NC(=O)[C@H](CC(C)C)N(C)C(=O)C[C@@H](C(=O)N2C3CCC2COC3)N(C)C(=O)[C@H](C2CCCC2)N(C)C(=O)C2(CCCC2)NC(=O)[C@@H]2CCCN2C(=O)[C@H](CCc2cc(F)c(C(F)(F)F)c(F)c2)NC(=O)CN(C)C(=O)[C@H](Cc2ccc(C(F)(F)F)cc2)N2CCCCC[C@@H](C2=O)N(C)C(=O)CN(C)C1=O [PP0511]
NRAS/KRAS (ratio of KD value with respect to GDP-bound NRAS wild-type protein to KD value with respect to KRAS) ([1]; KD ratio NRAS/KRAS): A (a compound having 10 or more and less than 20 is denoted as A)
HRAS/KRAS (ratio of KD value with respect to GDP-bound HRAS wild-type protein to KD value with respect to KRAS) ([2]; KD ratio HRAS/KRAS): B (a compound having 3 or more and less than 10 is denoted as B)

CCC(CC)[C@H]1C(=O)N(C)[C@H](C(=O)N(C)C)CC(=O)N(C)[C@@H](CC2CC2)C(=O)N[C@@H]([C@@H](C)CC)C(=O)N(C)CC(=O)N(C)[C@H]2C/C=C\CCN(C2=O)[C@@H](CC2CCC(F)(F)CC2)C(=O)N(C)CC(=O)N[C@@H](CCc2ccc(C(F)(F)F)c(OC)c2)C(=O)N2C[C@@H](C)C[C@H]2C(=O)NC2(CC(C)(C)C2)C(=O)N1C [PP2494]
NRAS/KRAS (ratio of KD value with respect to NRAS to KD value with respect to KRAS) [1, 3]: A (a compound having 10 or more and less than 20 is denoted as A)
HRAS/KRAS (ratio of KD value with respect to HRAS to KD value with respect to KRAS) [2, 4]: A (a compound having 10 or more and less than 20 is denoted as A)

CCCN1C(=O)CN(C)C(=O)CN(C)C(=O)[C@H]([C@@H](C)CC)NC(=O)[C@H](CC(C)C)N(C)C(=O)C[C@@H](C(=O)N(C)C)N(C)C(=O)[C@H](C2CCCC2)N(C)C(=O)[C@](C)(Cc2ccccc2)NC(=O)[C@@H]2CCCN2C(=O)[C@H](CCc2cc(F)c(C(F)(F)F)c(F)c2)NC(=O)CN(C)C(=O)[C@@H]1Cc1ccc(C(F)(F)F)cc1 [PP0740] ([NMeL]I[Sar][Sar][NPrPhe(4-CF3)][Sar][hPhe(3,5-F2-4-CF3)]P[αMeF][NMeGly(cPent)][NMeD]-NMe2; lactam N-11)
NRAS/KRAS (ratio of KD value with respect to GDP-bound NRAS wild-type protein to KD value with respect to KRAS) ([1]; KD ratio NRAS/KRAS): B (a compound having 3 or more and less than 10 is denoted as B)
HRAS/KRAS (ratio of KD value with respect to GDP-bound HRAS wild-type protein to KD value with respect to KRAS) ([2]; KD ratio HRAS/KRAS): C (A compound having a KD ratio of 0.1 or more and less than 3 is denoted as C)

CCC[C@H]1C(=O)N[C@@H]([C@@H](C)CC)C(=O)N(C)CC(=O)N(C)[C@H]2C/C=C\CCN(C2=O)[C@@H](Cc2ccc(C)cc2)C(=O)N(C)CC(=O)N[C@@H](CCc2ccc(C(F)(F)F)c(OC)c2)C(=O)N2C[C@H](OCC)C[C@H]2C(=O)NC2(CC(C)(C)C2)C(=O)N(C)[C@@H](CC(C)C)C(=O)N(C)[C@H](C(=O)N(C)C)CC(=O)N1C [PP3008]
NRAS/KRAS (ratio of KD value with respect to GDP-bound NRAS wild-type protein to KD value with respect to KRAS) ([1]; KD ratio NRAS/KRAS, GDP-bound wild-type proteins): A (a compound having 10 or more and less than 20 is denoted as A)
HRAS/KRAS (ratio of KD value with respect to GDP-bound HRAS wild-type protein to KD value with respect to KRAS) ([2]; KD ratio HRAS/KRAS, GDP-bound wild-type proteins): A (a compound having 10 or more and less than 20 is denoted as A)

CCC[C@H]1C(=O)N[C@@H]([C@@H](C)CC)C(=O)N(C)CC(=O)N(C)[C@H]2C/C=C\CCN(C2=O)[C@@H](Cc2ccc(C(F)(F)F)cc2)C(=O)N(C)CC(=O)N[C@@H](CCc2cc(F)c(C(F)(F)F)c(F)c2)C(=O)N2CC(F)(F)C[C@H]2C(=O)NC2(CC(C)(C)C2)C(=O)N(C)[C@@H](C2CCCC2)C(=O)N(C)[C@H](C(=O)N(C)C)CC(=O)N1C [PP1711]
NRAS/KRAS (ratio of KD value for NRAS to KD value for KRAS) [1, 5]: A (a compound having 10 or more and less than 20 is denoted as A)
HRAS/KRAS (ratio of KD value for HRAS to KD value for KRAS) [2, 6]: B (a compound having 3 or more and less than 10 is denoted as B)

CCO[C@@H]1C[C@H]2C(=O)NC3(CCCC3)C(=O)N(C)[C@@H](C3CCCC3)C(=O)N(C)[C@H](C(=O)N3CCOCC3)CC(=O)N(C)[C@@H](COC)C(=O)N[C@@H]([C@@H](C)CC)C(=O)NCC(=O)N(C)[C@H]3CCCCCN(C3=O)[C@@H](Cc3ccc(C(F)(F)F)cc3)C(=O)N(C)CC(=O)N[C@@H](CCc3cc(F)c(C(F)(F)F)c(F)c3)C(=O)N2C1 [PP0862]
NRAS/KRAS (ratio of KD value with respect to NRAS to KD value with respect to KRAS) [1, 5]: B (a compound having 3 or more and less than 10 is denoted as B)
HRAS/KRAS (ratio of KD value with respect to HRAS to KD value with respect to KRAS) [2, 6]: B (a compound having 3 or more and less than 10 is denoted as B)
